Laboratory results as given in patent US8389526B2, “3-heteroarylmethyl-imidazo[1,2-b]pyridazin-6-yl derivatives” (Novartis AG, priority 2009, dated 2013).

Assays:
[1] = biological target: T1, c-Met receptor tyrosine kinase, GST-c-Met(969-1390) (Homo sapiens, UniProt P08581); test: EPK c-Met profiling assay (LanthaScreen TR-FRET kinase assay); assay type: biochemical; details: 2 μM ATP, 0.3 nM enzyme, 60 minutes at room temperature
T1 construct: made in house
Procedure: A number of compounds of the present invention were assayed in an antibody based kinase phosphorylation assay as follows.
Epk c-Met Profiling Assay:
The EPK kinase assay for c-Met receptor tyrosine kinase was developed, using the purified recombinant GST-fusion protein, containing the cytoplasmic domain of the enzyme. GST-c-Met(969-1390) was purified by affinity chromatography.
The kinase assay is based on the LanthaScreen™ technology. LanthaScreen™ is the detection of Time-Resolved Fluorescence Resonance Energy Transfer (TR-FRET) using lanthanide chelates to measure interactions between various binding partners. In a TR-FRET kinase assay, a long-lifetime lanthanide donor species is conjugated to an antibody that specifically binds to a phosphorylated product of a kinase reaction that is labeled with a suitable acceptor fluorophore. This antibody-mediated interaction brings the lanthanide donor and the acceptor into proximity such that resonance energy transfer can take place, resulting in a detectible increase in the FRET signal.
The kinase reactions were performed in 384 well microtiter plates in a total reaction volume of 9.05 μL. The assay plates were prepared with 0.05 μL per well of test compound in the appropriate test concentration, as described under “preparation of compound dilutions”. The reactions were started by combining 4.5 μL of ATP solution with 4.5 μL of enzyme-substrate mix (consisting of kinase and substrate). The final concentrations in the kinase reactions were 35 mM Tris/HCl, 1 mM DTT, 0.025% Tween20, 10 μM sodium orthovanadate, 0.25% BSA, 0.6% DMSO, 10 mM MgCl2, 3 mM MnCl2, 2 μM ATP, 50 nM Fluorescein-PolyEAY, and 0.3 nM enzyme.
The reactions were incubated for 60 minutes at room temperature and stopped by adding 4.5 μL of stop buffer (50 mM EDTA, 0.04% NP40, 20 mM Tris/HCl).
Subsequently 4.5 μL of detection mix (50 mM Tris/HCl, 2 mM DTT, 0.05% Tween20, 20 μM sodium orthovanadate, 1% BSA, 1.72 μg/mL Tb-PY20 antibody) were added to the stopped reactions. After 30 minutes incubation at room temperature, the plates were measured in a BMG Pherastar fluorescence reader. The effect of compound on the enzymatic activity was in all assays obtained from the linear progress curves and determined from one reading (end point measurement).
Preparation of Compound Dilutions
Test compounds were dissolved in DMSO (10 mM) and transferred into 1.4 mL flat bottom or V-shaped Matrix tubes carrying a unique 2D matrix. The stock solutions were stored at −20° C. if not used immediately. For the test procedure the vials were defrosted and identified by a scanner whereby a working sheet was generated that guided the subsequent working steps.
Compound dilutions were made in 96 well plates. This format enabled the assay of maximally 40 individual test compounds at 8 concentrations (single points) including 4 reference compounds. The dilution protocol included the production of “pre-dilution plates”, “master plates” and “assay plates”.
Pre-dilution plates: 96 polypropylene well plates were used as pre-dilution plates. A total of 4 pre-dilution plates were prepared including 10 test compounds each on the plate positions A1-A10, one standard compound at A11 and one DMSO control at A12. All dilution steps were done on a HamiltonSTAR robot.
Master plates: 100 μL of individual compound dilutions including standard compound and controls of the 4 “pre-dilution plates” were transferred into a 384 “master plate” including the following concentrations 1′820, 564, 182, 54.6, 18.2, 5.46, 1.82 and 0.546 μM, respectively in 90% of DMSO.
Assay plates: Identical “assay plates” were then prepared by pipetting 50 nL each of compound dilutions of the “master plates” into 384-well “assay plates” by means of a HummingBird 384-channel dispenser. These plates were used directly for the assay which was performed in a total volume of 9.05 μL. […]

c-Met = biological target: T2, c-Met (Homo sapiens, UniProt P08581); test: GTL-16 c-Met autophosphorylation measured by AlphaScreen detection; assay type: cell-based; details: GTL-16 cells, 1 h incubation, AlphaScreen p-c-Met; read-out: GTL-16 IC50 c-Met phosphorylation
T2 construct: adapted to measure the phosphorylation of endogenous cellular proteins in cell lysates; endogenous in cells; host or cells: GTL-16
T2 sequence (P08581 25-1390): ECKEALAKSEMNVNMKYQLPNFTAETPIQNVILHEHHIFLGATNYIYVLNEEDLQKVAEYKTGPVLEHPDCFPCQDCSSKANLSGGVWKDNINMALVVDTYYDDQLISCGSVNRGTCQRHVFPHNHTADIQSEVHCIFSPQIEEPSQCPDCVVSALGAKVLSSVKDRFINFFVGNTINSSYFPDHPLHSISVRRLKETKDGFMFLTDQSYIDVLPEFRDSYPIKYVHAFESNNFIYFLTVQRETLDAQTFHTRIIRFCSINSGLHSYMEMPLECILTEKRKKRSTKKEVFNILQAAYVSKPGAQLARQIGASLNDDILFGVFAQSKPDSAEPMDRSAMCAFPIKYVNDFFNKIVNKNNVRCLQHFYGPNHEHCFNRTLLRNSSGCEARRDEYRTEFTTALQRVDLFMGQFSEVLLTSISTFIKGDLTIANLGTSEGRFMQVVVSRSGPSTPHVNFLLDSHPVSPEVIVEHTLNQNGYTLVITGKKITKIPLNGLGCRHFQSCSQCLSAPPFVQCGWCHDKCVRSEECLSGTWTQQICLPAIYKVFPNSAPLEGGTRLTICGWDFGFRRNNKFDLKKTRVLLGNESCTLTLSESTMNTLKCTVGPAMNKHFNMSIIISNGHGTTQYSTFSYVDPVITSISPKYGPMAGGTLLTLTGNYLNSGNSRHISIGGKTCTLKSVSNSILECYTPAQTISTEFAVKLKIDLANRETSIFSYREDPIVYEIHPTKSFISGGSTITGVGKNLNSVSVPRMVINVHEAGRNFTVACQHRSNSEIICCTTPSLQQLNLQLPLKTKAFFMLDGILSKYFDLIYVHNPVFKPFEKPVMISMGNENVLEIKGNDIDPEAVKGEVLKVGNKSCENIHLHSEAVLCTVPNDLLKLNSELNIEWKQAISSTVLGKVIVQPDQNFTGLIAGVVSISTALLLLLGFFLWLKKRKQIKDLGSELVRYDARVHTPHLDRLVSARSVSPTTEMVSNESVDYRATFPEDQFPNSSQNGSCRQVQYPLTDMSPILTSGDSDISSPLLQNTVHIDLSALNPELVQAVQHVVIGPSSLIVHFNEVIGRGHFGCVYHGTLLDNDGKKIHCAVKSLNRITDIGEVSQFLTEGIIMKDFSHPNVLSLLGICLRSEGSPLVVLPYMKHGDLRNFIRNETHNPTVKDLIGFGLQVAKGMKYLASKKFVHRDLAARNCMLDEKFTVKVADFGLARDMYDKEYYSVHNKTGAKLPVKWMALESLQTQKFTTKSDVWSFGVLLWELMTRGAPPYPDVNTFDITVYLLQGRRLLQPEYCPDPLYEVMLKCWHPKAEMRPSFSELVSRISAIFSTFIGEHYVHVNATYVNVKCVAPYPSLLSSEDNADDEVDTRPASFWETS
Procedure: (§1) C-Met Dependent Cellular Assays
(§2) A number of compounds of the present invention were assayed in a c-Met dependent proliferation and phosphorylation assay as follows.
GTL-16 c-Met autophosphorylation measured by AlphaScreen® detection: the human MET-amplified gastric cancer cells GTL-16 were plated in 384-well plates at a density of 10′000 cells in 20 ul complete growth medium (DMEM high glucose supplemented with 10% (v/v) heat inactivated fetal calf serum and of 1 mM sodium pyruvate) and were incubated at […]/5% CO2/95% humidity for 20 h. The cells were washed and the 30 ul assay buffer (DMEM high glucose, 1 mM sodium pyruvate, 0.1% bovine serum albumine) was added. Compounds were diluted in 384-well compound plates to obtain 8-point serial dilutions for 40 test compounds in 90% DMSO, as well as a reference compound plus 16 high- and 16 low (inhibited) controls. These compound plates were prediluted 1:200 in assay buffer into a compound predilution plate and 10 ul of prediluted compound solution were transferred to the cell plate using a 384-well pipettor, resulting in a final DMSO concentration of 0.11%. Cells were incubated for 1 h at […]/5% CO2/95% humidity. The supernatant was removed, the cells were lysed in 25 ul of RIPA [radio immuno precipitation assay] lysis buffer supplemented with 2 mM sodium vanadate and a protease inhibitor cocktail, and cell plates were stored at −80° C.
For detection of p-c-Met, an AlphaScreen®-based assay was used. AlphaScreen® (Amplified Luminescent Proximity Homogeneous Assay, ALPHA, Perkin Elmer, U.S.A) is a non-radioactive bead-based proximity assay technology to study biomolecular interactions in a homogenous microtiter plate format. This technique has been adapted to measure the phosphorylation of endogenous cellular proteins in cell lysates by the use of specific antibody pairs against the total protein and a phospho-specific epitope. 5 ul of cell lysate was transferred to 384-well low volume Proxiplates for detection using a 384-well pipettor. First, 5 ul of a premix of an anti-c-Met antibody (0.25 ug/ml f.c.), a biotinylated PY20 antibody (phosphotyrosine antibody, 0.05 ug/ml f.c.) and AlphaScreen® Protein A-coupled acceptor beads (10 ug/ml f.c.) in RIPA buffer supplemented with 0.25% (v/w) TOP BLOCK, 2 mM sodium vanadate, and a protease inhibitor cocktail and was added, the plate was sealed, and incubated on a plate shaker for 2 hours at room temperature. Second, 2 ul of dilution buffer containing AlphaScreen® Streptavidin-coated donor beads (10 ug/ml f.c.) in RIPA buffer was added, and the plate was incubated on plate shaker as above for a further 2 hours. The plate was read on an AlphaScreen® compatible plate reader, using standard AlphaScreen® settings.

[2] = tested on: MET-amplified gastric cancer cell line GTL-16; test: GTL-16 proliferation assay (MTS); assay type: cell-based; details: Homo sapiens, GTL-16 cells, 72 h incubation
Procedure: as §1, §2
GTL-16 proliferation assay: the MET-amplified gastric cancer cell line GTL-16 was grown under standard cell culture conditions in DMEM [Dulbecco's Modified Eagle Medium] (high glucose) supplemented with 10% heat-inactivated fetal calf serum and 2 mM L-glutamine. For proliferation assays, cells were seeded at 3000 per well in 96-well-plates. 24 h later, a 10-point dilution series of each compound (3-fold steps, ranging from […]) was prepared in DMSO. Compound were then diluted 1000-fold in growth media in two steps and added to cells in triplicates, resulting in a final volume of […] per well and maximal final compound concentrations of […]. A DMSO-only control was included. Cells were incubated for 72 h and the amount of viable cells was then measured by adding […] of MTS reagent (CellTiter 96® AQueous Non-Radioactive Cell Proliferation Assay, Promega), further incubation for 30′, and reading the optical density at 490 nm.

T1 sequence (P08581 969-1390): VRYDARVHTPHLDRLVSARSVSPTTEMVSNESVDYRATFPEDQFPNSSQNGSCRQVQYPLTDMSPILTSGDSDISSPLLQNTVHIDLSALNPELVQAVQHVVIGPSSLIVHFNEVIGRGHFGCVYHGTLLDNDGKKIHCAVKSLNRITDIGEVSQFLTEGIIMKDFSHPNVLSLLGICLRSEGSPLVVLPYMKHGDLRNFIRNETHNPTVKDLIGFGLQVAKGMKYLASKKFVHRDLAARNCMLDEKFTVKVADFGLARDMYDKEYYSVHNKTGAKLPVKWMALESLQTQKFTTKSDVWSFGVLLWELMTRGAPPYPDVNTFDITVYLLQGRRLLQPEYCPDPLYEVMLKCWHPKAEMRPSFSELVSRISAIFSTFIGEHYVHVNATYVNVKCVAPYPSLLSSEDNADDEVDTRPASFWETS

CC(c1c(F)cc2c(cnn2C)c1F)c1cnc2ccc(N3CCN(C)C(=O)C3)nn12 (racemic) [Example 49, (rac)-4-(3-(1-(4,6-difluoro-1-methyl-1H-indazol-5-yl)ethyl)imidazo[1,2-b]pyridazin-6-yl)-1-methylpiperazin-2-one]
IC50 [1]: 16 nM
IC50 (c-Met): 6.5 nM
IC50 [2]: 29 nM

CC(c1c(F)cc2c(cnn2C)c1F)c1cnc2ccc(N3CCNC(=O)C3)nn12 (racemic) [Example 51]
IC50 [1]: 22 nM
IC50 (c-Met): 8 nM
IC50 [2]: 16 nM

CC(c1c(F)cc2c(cnn2C(C)C)c1F)c1cnc2ccc(N3CCN(C)C(=O)C3)nn12 (racemic) [Example 56, (rac)-4-(3-(1-(4,6-difluoro-1-isopropyl-1H-indazol-5-yl)ethyl)imidazo[1,2-b]pyridazin-6-yl)-1-methylpiperazin-2-one]
IC50 [1]: 27 nM
IC50 (c-Met): 7 nM
IC50 [2]: 49 nM

CC(c1c(F)cc2c(cnn2C(C)C)c1F)c1cnc2ccc(N3CCNC(=O)C3)nn12 (racemic) [Example 57, (rac)-4-(3-(1-(4,6-difluoro-1-isopropyl-1H-indazol-5-yl)ethyl)imidazo[1,2-b]pyridazin-6-yl)piperazin-2-one]
IC50 [1]: 17 nM
IC50 (c-Met): 9 nM
IC50 [2]: 36 nM

CC1C(=O)NCCN1c1ccc2ncc([C@@H](C)c3c(F)cc4ncccc4c3F)n2n1 (mixture of isomers) [Example 58, (rac)-4-{3-[(S)-1-(5,7-Difluoro-quinolin-6-yl)-ethyl]-imidazo[1,2-b]pyridazin-6-yl}-3-methyl-piperazin-2-one]
IC50 [1]: 2.7 nM
IC50 (c-Met): 3.7 nM
IC50 [2]: 7.1 nM

C[C@@H](c1c(F)cc2ncccc2c1F)c1cnc2ccc(N3CCN(C)CC3)nn12 [Example 9, 5,7-Difluoro-6-{(S)-1-[6-(4-methyl-piperazin-1-yl)-imidazo[1,2-b]pyridazin-3-yl]-ethyl}-quinoline]
IC50 [1]: 2.9 nM
IC50 (c-Met): 2.2 nM
IC50 [2]: 10 nM

C[C@@H](c1c(F)cc2ncccc2c1F)c1cnc2ccc(N3CCN(C=O)CC3)nn12 [Example 13, 4-{3-[(S)-1-(5,7-Difluoro-quinolin-6-yl)-ethyl]-imidazo[1,2-b]pyridazin-6-yl}-piperazine-1-carbaldehyde]
IC50 [1]: < 3 nM
IC50 (c-Met): 2.5 nM
IC50 [2]: 9.2 nM

C[C@@H](c1c(F)cc2ncccc2c1F)c1cnc2ccc(N3CCN(C(N)=O)CC3)nn12 [Example 16, 4-{3-[(S)-1-(5,7-Difluoro-quinolin-6-yl)-ethyl]-imidazo[1,2-b]pyridazin-6-yl}-piperazine-1-carboxylic acid amide]
IC50 [1]: 1.7 nM
IC50 (c-Met): 5.5 nM
IC50 [2]: 15 nM

C[C@@H](c1cc2cnn(C)c2cc1F)c1cnc2ccc(N3CCN(C)C(=O)C3)nn12 [Example 26, 4-{3-[(S)-1-(6-Fluoro-1-methyl-1H-indazol-5-yl)-ethyl]-imidazo[1,2-b]pyridazin-6-yl}-1-methyl-piperazin-2-one]
IC50 [1]: 26 nM
IC50 (c-Met): 10 nM
IC50 [2]: 66 nM

CC(=O)N1CCN(c2ccc3ncc([C@@H](C)c4cc5cnn(C)c5cc4F)n3n2)CC1 [Example 29, 1-(4-{3-[(S)-1-(6-Fluoro-1-methyl-1H-indazol-5-yl)-ethyl]-imidazo[1,2-b]pyridazin-6-yl}-piperazin-1-yl)-ethanone]
IC50 [1]: 55 nM
IC50 (c-Met): 25 nM
IC50 [2]: 136 nM

CN1CCN(c2ccc3ncc(Cc4c(F)cc5ncccc5c4F)n3n2)CC1=O [Example 30, 4-[3-(5,7-Difluoro-quinolin-6-ylmethyl)-imidazo[1,2-b]pyridazin-6-yl]-1-methyl-piperazin-2-one]
IC50 [1]: 6.6 nM
IC50 (c-Met): < 3 nM
IC50 [2]: 37 nM

O=C1CN(c2ccc3ncc(Cc4c(F)cc5ncccc5c4F)n3n2)CCN1 [Example 31, 4-[3-(5,7-Difluoro-quinolin-6-ylmethyl)-imidazo[1,2-b]pyridazin-6-yl]-piperazin-2-one]
IC50 [1]: 8.2 nM
IC50 (c-Met): 4.7 nM
IC50 [2]: 15 nM

Fc1cc2ncccc2c(F)c1Cc1cnc2ccc(N3CCNCC3)nn12 [Example 32, 5,7-Difluoro-6-(6-piperazin-1-yl-imidazo[1,2-b]pyridazin-3-ylmethyl)-quinoline]
IC50 [1]: 7.4 nM
IC50 (c-Met): < 3 nM
IC50 [2]: 25 nM

CN1CCN(c2ccc3ncc(Cc4c(F)cc5ncccc5c4F)n3n2)CC1 [Example 33, 5,7-Difluoro-6-[6-(4-methyl-piperazin-1-yl)-imidazo[1,2-b]pyridazin-3-ylmethyl]-quinoline]
IC50 [1]: 14 nM
IC50 (c-Met): 9 nM
IC50 [2]: 46 nM

CC(=O)N1CCN(c2ccc3ncc(Cc4c(F)cc5ncccc5c4F)n3n2)CC1 [Example 34, 1-{4-[3-(5,7-Difluoro-quinolin-6-ylmethyl)-imidazo[1,2-b]pyridazin-6-yl]-piperazin-1-yl}-ethanone]
IC50 [1]: 10 nM
IC50 (c-Met): 7 nM
IC50 [2]: 65 nM
